Measured values published in US20250255856A1, “THERAPEUTIC COMPOSITIONS WITH IMINO SUGARS FOR THE TREATMENT OF DISEASES WITH ACCUMULATION OF HEPARAN SULFATE” (priority 2022, published 2025).
Where a name gives a salt, the structure may show the parent alone.

Key:
[1] = tested on: human adult dermal fibroblasts HDFa; assay: HS and Lamp1 immunofluorescence in control fibroblasts HDFa; format: cell-based; conditions: 20 μM, 48 hours
Protocol: (§1) To verify whether the selected iminosugars could exert the same effects also on the fibroblasts of patients affected by Sanfilippo disease, human adult dermal fibroblasts HDFa (purchased from Sigma-Aldrich) were used as control, and fibroblasts of patients affected by Sanfilippo A and B (MPS IIIA and IIIB) were used as disease model.
(§2) Cells were cultured in the presence of the selected L-iminosugars at a dosage of 20 μM and after 48 hours were treated for HS and Lamp1 immunofluorescence. Treatment with L-iminosugars had no effect on control HDFa (Table 3).
(§3) Cells were grown in the presence of the iminosugars D-DNJ, D-NBDNJ, D-AMPDNM and D-MONDNJ at the dosage of 20 μM and after 48 hours were treated for HS and Lamp1 immunofluorescence. Treatment with D-iminosugars had no effect on HDFa and fibroblasts of patients affected by Sanfilippo A and B (MPS IIIA and MPS IIIB) both on HS and lysosome accumulation (Table 4).

[2] = tested on: fibroblasts of patients affected by Sanfilippo A (MPS IIIA); assay: HS and Lamp1 immunofluorescence in Sanfilippo A patient fibroblasts; format: cell-based, human; conditions: 20 μM, 48 hours; for Effect on HS and lysosome (Lamp1) accumulation, in words: Sanfilippo A (MPS IIIA) patient fibroblasts
Description: as §1
(§4) The human cell lines, fibroblasts, from patients with MPS (Sanfilippo disease) used in the examples were obtained from the G. Gaslini Institute of Genoa, “Cell Line and DNA Biobank from Patients Affected by Genetic Diseases”-Telethon Genetic Biobank Network—Telethon research service. These cells are classified with identification codes and by type of disease without allowing patient identification. Cells were collected from the patients, at the Gaslini Institute, with informed consent to the collection extended to conservation and its possible use, for diagnosis and/or research purposes according to current legislation as required by the guidelines followed by the Telethon biobanks. The Network operates abiding by the Italian Privacy and Data Protection Laws in force, including: Italian Data Protection Authority, Personal Data Protection Code, Legislative Decree no. 196, 30 Jun. 2003, published in Official Gazette No. 174 of the Italian Republic, 29 Jul. 2003; Italian Data Protection Authority, General Authorization for the processing of genetic data, 24 Jun. 2011, published in Official Gazette No. 159 of Italian Republic, 11 Jul. 2011.
as §2, §3

[3] = tested on: fibroblasts of patients affected by Sanfilippo B (MPS IIIB); assay: HS and Lamp1 immunofluorescence in Sanfilippo B patient fibroblasts; format: cell-based, human; conditions: 20 μM, 48 hours; for Effect on HS and lysosome (Lamp1) accumulation, in words: Sanfilippo B (MPS IIIB) patient fibroblasts
Description: as §1, §4, §2, §3

[4] = tested on: HeLa tumor epithelial cells; assay: HeLa cell proliferation assay; format: cell-based; conditions: after 48 hours
Protocol: Furthermore, treatment with the L-deoxyminosugars L-DNJ, L-NBDNJ, L-AMPDNM and L-MONDNJ caused a decrease of the number of HeLa cells after 48 hours as shown by the cell proliferation assay reported in Table 6.

[5] = tested on: NAGLU-silenced clone (cl5) of human neuroblastoma cell line SK-NBE; assay: Immunofluorescence against beta-amyloid peptide 1-42 in NAGLU-silenced SK-NBE clone; format: cell-based; conditions: 20 μM, 48 hours
Protocol: The clone (c15) stably silenced for NAGLU, the causative gene of MPS IIIB, is able to mimic the features of neurodegenerative diseases as it accumulates beta-amyloid fibers in the cytoplasm. In fact, Sanfilippo Syndrome is also defined as “childhood Alzheimer”.
The diseased clone (c15) was grown in the presence of L-DNJ, L-NBDNJ, L-AMPDNM and L-MONDNJ and the corresponding enantiomers D-DNJ, D-NBDNJ, D-AMPDNM and D-MONDNJ at a dosage of 20 μM and after 48 hours were processed by immunofluorescence against the beta-amyloid peptide 1-42. […] On contrary, treatment with the corresponding D-enantiomers has no effect on the reduction of the accumulation of amyloid fibers compared to the untreated clone (mock) (Table 7).

patients with MPS III = conditions: cited from earlier work
[6] = tested on: NAGLU-silenced clone (cl5) of human neuroblastoma cell line SK-NBE; assay: Lamp1 immunofluorescence (lysosomal accumulation) in NAGLU-silenced SK-NBE clone, Sanfilippo B model; format: cell-based; conditions: 48 hours; for Cells positive for Lamp1 (%) / Relative Lamp1 fluorescence intensity: cl5 clone, 20 μM; for Effect on lysosomal enlargement and accumulation (lysosomal phenotype), in words: clone 5, 20 μM
Description: (§5) To study the effects of the compounds on the lysosomal dysfunctions in a neuronal model of Sanfilippo B disease (MPS IIIB), we recently generated stable clones of the human neuroblastoma cell line SK-NBE silenced for the NAGLU gene causative of MPS IIIB [De Pasquale V, et al. (2021). Biochim Biophys Acta Mol Cell Res. 1868, 119113.]. Mimicking the features of Sanfilippo B disease, silencing of NAGLU causes accumulation of heparan sulfate and accumulation of lysosomes in the cytoplasm of stable SK-NBE clones compared to the control (WT) clone.
(§6) Therefore, NAGLU-silenced clone (c15) and control clone (WT) were selected to test the effect of L-deoxyminosugars (L-DNJ, L-NBDNJ, L-NNDNJ, L-HPDNJ, L-NPDNJ, L-AMPDNM and L-MONDNJ) in the hydrochloride form on the lysosomal phenotype of our cell model of Sanfilippo B (MPS IIIB).
(§7) Clone 5 was cultured in the presence of 20 μM of each L-deoxyminosugar under normal growth conditions and after 48 hours the lysosomal accumulation was evaluated with immunofluorescence technique by using a specific antibody against Lamp1 (lysosomal marker). […] Furthermore, upon treatment with the active L-deoxyminosugar the lysosomes are no longer concentrated in the perinuclear region of the cells, as occurs in several lysosomal diseases, but they are physiologically distributed throughout the cytoplasm.

[7] = tested on: control clone (WT) of human neuroblastoma cell line SK-NBE; assay: Lamp1 immunofluorescence in control (WT) SK-NBE clone; format: cell-based; conditions: 20 μM, 48 hours
Description: as §5, §6, §7

[8] = tested on: NAGLU-silenced clone (cl5) of human neuroblastoma cell line SK-NBE; assay: Heparan sulfate (HS) immunofluorescence in NAGLU-silenced SK-NBE clone, Sanfilippo B model; format: cell-based; conditions: 48 hours; for Cells positive for HS (%) / Relative HS fluorescence intensity: cl5 clone, 20 μM; for Effect on HS staining / HS accumulation, in words: clone 5, 20 μM
Description: as §5
Clone 5 was grown in the presence of 20 μM of each L-iminosugar under normal growth conditions and after 48 hours the accumulation of heparan sulfate (HS) was evaluated by immunofluorescence staining for HS.

[9] = tested on: control clone (WT) of human neuroblastoma cell line SK-NBE; assay: Heparan sulfate (HS) immunofluorescence in control (WT) SK-NBE clone; format: cell-based; conditions: 20 μM, 48 hours
[10] = tested on: HeLa tumor epithelial cells; assay: HS immunostaining in HeLa cells; format: cell-based; conditions: 48 hours
Protocol: To test whether treatment with the selected L-deoxyminosugars (L-DNJ, L-NBDNJ, L-AMPDNM and L-MONDNJ) could interfere with HS synthesis we selected a cell line not mutated for NAGLU and highly decorated by heparan sulfate on the cell membrane. For this purpose, HeLa tumor epithelial cells (purchased from ATCC) were cultured for 48 hours in the presence of the selected L-iminosugars and the amount of HS was evaluated by immunostaining.

SMILES	Cell number [4]	Relative amyloid fluorescence intensity [5]	Cells positive for Lamp1 (%) [6]	Relative Lamp1 fluorescence intensity [6]	Effect on lysosomal enlargement and accumulation (lysosomal phenotype), in words [6]	Cells positive for Lamp1 (%) [7]	Relative Lamp1 fluorescence intensity [7]	Cells positive for HS (%) [8]	Relative HS fluorescence intensity [8]	Effect on HS staining / HS accumulation, in words [8]	Cells positive for HS (%) [9]	Relative HS fluorescence intensity [9]	Relative fluorescence intensity compared to HDFa, HS [1]	Relative fluorescence intensity compared to HDFa, Lamp1 [1]	Relative fluorescence intensity compared to HDFa, HS ([2]; MPS-IIIA fibroblasts)	Relative fluorescence intensity compared to HDFa, Lamp1 ([2]; MPS-IIIA fibroblasts)	Effect on HS and lysosome (Lamp1) accumulation, in words [2]	Relative fluorescence intensity compared to HDFa, HS ([3]; MPS-IIIB fibroblasts)	Relative fluorescence intensity compared to HDFa, Lamp1 ([3]; MPS-IIIB fibroblasts)	Effect on HS and lysosome (Lamp1) accumulation, in words [3]	also measured
CCCCN1C[C@H](O)[C@@H](O)[C@H](O)[C@H]1CO [D-NBDNJ•HCl]	4.2 · 10^5	0.98																			Cells positive for HS (%) [1]: 4.8%; Cells positive for Lamp1 (%) [1]: 5.0%; Cells positive for HS (%) ([2]; MPS-IIIA fibroblasts): 99.7%; Cells positive for Lamp1 (%) ([2]; MPS-IIIA fibroblasts): 94.7%; Cells positive for HS (%) ([3]; MPS-IIIB fibroblasts): 95.2%; Cells positive for Lamp1 (%) ([3]; MPS-IIIB fibroblasts): 93.8%; Clinical efficacy in MPS III patients, in words (patients with MPS III): no beneficial effects
OC[C@@H]1NC[C@@H](O)[C@H](O)[C@H]1O [L-DNJ•HCl]	2.9 · 10^5	0.01	25%	0.95	dramatic reduction	2.8%	1.00	5.1%	1.20	dramatic reduction	2.6%	0.94	1.0	1.0	1.0	1.8	strong reduction	1.0	1.0	strong reduction	Effect on HS accumulation on the HeLa cell membrane, in words [10]: strong reduction; Relative HS fluorescence intensity [10]: 0.24; Effect on the number of HeLa cells, in words [4]: decrease
COCCCCCCCCCN1C[C@@H](O)[C@H](O)[C@@H](O)[C@@H]1CO [L-MONDNJ•HCl, N-methoxynonyl L-DNJ]	3.1 · 10^5	0.01	21%	1.00	dramatic reduction	2.4%	1.05	4.9%	1.15	dramatic reduction	2.1%	0.97	1.0	1.0	1.8	2.2	strong reduction	1.7	1.3	strong reduction	Effect on HS accumulation on the HeLa cell membrane, in words [10]: strong reduction; Relative HS fluorescence intensity [10]: 0.11; Effect on the number of HeLa cells, in words [4]: decrease
CCCCN1C[C@@H](O)[C@H](O)[C@@H](O)[C@@H]1CO [L-NBDNJ•HCl, N-butyl-L-deoxynojirimycin]	3.6 · 10^5	0.01	20%	0.97	dramatic reduction	2.6%	1.07	7.4%	1.13	dramatic reduction	2.5%	0.96	1.0	1.0	1.7	1.9	strong reduction	1.5	1.0	strong reduction	Effect on HS accumulation on the HeLa cell membrane, in words [10]: strong reduction; Relative HS fluorescence intensity [10]: 0.26; Effect on the number of HeLa cells, in words [4]: decrease
O=c1c(-c2ccc(O)cc2)coc2cc(O)cc(O)c12 [genistein]																					Clinical efficacy in MPS III patients, in words (patients with MPS III): ineffective
